From patent EP4741395A1, “NOVEL COMPOUND SENSITIVE TO NITROGEN MONOXIDE AND PHARMACEUTICAL COMPOSITION COMPRISING SAME” (Omniamed Co. Ltd, priority 2023, dated 2025) come the findings set out here.

Each structure is given as a SMILES string.

Data set [1] in a line: Hematological toxicity evaluation after single oral administration (routine blood test). As to conditions: single oral dose 200 mg/kg and 800 mg/kg, compared with the normal group.
Data set [2] in a line: HPLC analysis of nitrogen monoxide sensitivity (release of the low-molecular-weight compound). The class given is physicochemical. Particulars: NaNO2 / sulfuric acid, 1 hour, room temperature; FIGS. 2A to 2C. The protocol: It was checked whether the pharmaceutical composition sensitive to nitrogen monoxide including the compound according to each of the Examples is capable of releasing a low-molecular-weight compound having pharmaceutical activity by separating a nitrogen monoxide scavenger in an environment where nitrogen monoxide is present.
A sample for HPLC analysis was prepared as follows. 28 mg of NaNO2 (0.41 mmol, 16.4 equiv) was dissolved in 0.3 mL of water, and then the mixture solution was cooled to 0°C to 5°C. After introducing 0.2 mL of sulfuric acid (0.1 mmol, 4 equiv) to the mixture solution, 12.2 mg of Compound (4) (0.025 mmol, 1 equiv), which was prepared in Example 4, dissolved in 0.2 mL of acetone was introduced thereto. The mixture solution was stirred for 1 hour at room temperature. After the reaction was finished, water and dichloromethane were introduced to the reaction solution for extraction. The organic layer was separated, then dried with magnesium sulfate, and filtered. […]
Specifically, referring to FIG. 2A, the peak of Compound (4) of Example 4, which is the pharmaceutical composition sensitive to nitrogen monoxide, was detected at 14.2 minutes. On the other hand, referring to FIG. 2B, the peak of Compound (4) disappeared in an environment where excess nitrogen monoxide is present, and a peak detected at 7.7 minutes was generated.

The next data set has as its system Raw 264.7 cell line. Briefly: NO scavenging activity in LPS-treated immune cells (Griess reagent). The class given is cell-based. As to conditions: Mus musculus, RAW264.7, Raw 264.7, LPS 500 ng/mL, 24 hours, read-out: NO Scavenging Activity (%) (Mean±SD).
A further data set relates to IFN-γ. Briefly: IFN-γ reduction activity in Concanavalin A-treated splenocytes (quantitative ELISA). The class given is cell-based, C57BL/6 mouse. Particulars: Mus musculus, Splenocyte, Concanavalin A 5 µg/mL, 72 hours, read-out: IFN-γ Reduction Activity (%) (Mean±SD). In short, it runs like this: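 Splenocytes from 8-week-old C57BL/6 mice at 5×10^6 cells/mL in RPMI 1640 with 10% FBS, stimulated with Concanavalin A (5 µg/mL) plus compound added concentration-dependently. Supernatant IFN-γ measured by quantitative ELISA after 72 h.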
In general terms: In an ELISA, binding on a coated surface is turned into a signal by an enzyme label.

Data set [3] relates to splenocytes. Briefly: NO scavenging activity in Concanavalin A-treated splenocytes (Griess assay). It counts as cell-based, C57BL/6 mouse. Particulars: Mus musculus, Splenocyte, Concanavalin A 5 µg/mL, 72 hours, read-out: NO Scavenging Activity (%) (Mean±SD). The essentials:
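Splenocytes from 8-week-old C57BL/6 mice at 5×10^6 cells/mL in RPMI 1640/10% FBS, stimulated with Concanavalin A (5 µg/mL) plus […] test composition added at plating. After 72 h culture, remaining NO in supernatant measured by Griess assay.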
(The Griess reaction detects nitrite, a stable product of nitric oxide.)

The nature of data set [4]: Efficacy on DSS induced ulcerative colitis (disease activity index). The class given is in vivo, mice. As for the experimental part: In order to establish an ulcerative colitis model, 2.5% DSS powder was mixed with drinking water and provided ad libitum. The DSS powder-containing drinking water was supplied for 5 to 6 days of disease induction period, and after that, normal drinking water was supplied.
The administered compounds of Table 21 were administered orally once daily. Hematochezia, diarrhea and body weight loss were scored according to the criteria shown in the following Table 22, and the scores were summed to calculate a disease activity index (DAI), which is shown in FIG. 4.
Efficacy of Compound (4) on ulcerative colitis was verified in the same manner as in Experimental Example 10-1, except that Compound (4) was used instead of Compound (1), and DSS was administered until day 5, and the drug was administered from day 6.

The subject of data set [5] is splenocytes. Briefly: Inhibitory activity on cell proliferation in splenocytes (CCK-8 analysis). It counts as cell-based, C57BL/6 mouse. Particulars: Mus musculus, Splenocyte, Concanavalin A 5 µg/mL, 72 hours, read-out: Inhibitory Activity on Cell Proliferation (%) (Mean±SD).
For the next data set, the target named is T1, JAK 3 (Homo sapiens, UniProt P52333).
T1 construct: purchased Eurofins Scientific (assay service)
T1 sequence (P52333 1-1124): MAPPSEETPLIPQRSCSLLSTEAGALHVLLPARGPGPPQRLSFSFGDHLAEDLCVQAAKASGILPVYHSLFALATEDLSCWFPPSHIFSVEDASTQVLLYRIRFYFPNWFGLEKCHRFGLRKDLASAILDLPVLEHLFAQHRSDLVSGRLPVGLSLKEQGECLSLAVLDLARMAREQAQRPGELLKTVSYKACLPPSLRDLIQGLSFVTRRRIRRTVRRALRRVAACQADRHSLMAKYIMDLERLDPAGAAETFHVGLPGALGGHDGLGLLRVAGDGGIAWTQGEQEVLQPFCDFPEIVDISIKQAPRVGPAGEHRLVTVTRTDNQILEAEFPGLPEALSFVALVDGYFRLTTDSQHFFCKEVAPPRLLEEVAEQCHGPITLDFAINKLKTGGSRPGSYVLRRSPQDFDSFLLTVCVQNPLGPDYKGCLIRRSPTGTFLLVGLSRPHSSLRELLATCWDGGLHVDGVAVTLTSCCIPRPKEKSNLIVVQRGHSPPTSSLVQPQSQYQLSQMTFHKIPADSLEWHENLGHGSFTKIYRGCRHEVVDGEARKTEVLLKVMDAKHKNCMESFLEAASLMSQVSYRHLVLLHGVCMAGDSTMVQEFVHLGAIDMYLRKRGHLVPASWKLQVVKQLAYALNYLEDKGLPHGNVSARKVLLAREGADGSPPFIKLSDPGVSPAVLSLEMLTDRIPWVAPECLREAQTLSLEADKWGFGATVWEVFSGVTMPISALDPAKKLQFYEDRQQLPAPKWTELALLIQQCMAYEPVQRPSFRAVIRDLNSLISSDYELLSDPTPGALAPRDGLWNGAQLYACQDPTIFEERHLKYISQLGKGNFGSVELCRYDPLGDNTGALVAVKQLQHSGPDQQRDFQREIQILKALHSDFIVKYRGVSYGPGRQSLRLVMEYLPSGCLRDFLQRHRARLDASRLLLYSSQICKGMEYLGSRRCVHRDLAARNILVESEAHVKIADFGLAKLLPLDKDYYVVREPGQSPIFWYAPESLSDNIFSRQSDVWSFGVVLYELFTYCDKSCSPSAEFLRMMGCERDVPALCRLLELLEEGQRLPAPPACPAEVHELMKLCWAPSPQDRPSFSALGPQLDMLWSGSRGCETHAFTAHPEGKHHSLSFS
Briefly: JAK Human TK kinase enzymatic radiometric assay (Eurofins), JAK 3. Also on record: unit not given here. As to conditions: value close to 100 indicates low JAK activity of the compound. It counts as biochemical. From the text:
(§1) For the compounds of the Examples, JAK activity of each of the compounds was verified using the JAK Human TK Kinase Enzymatic Radiometric Kinase Profiler Assay service provided by Eurofins Scientific.
(§2) The activity was verified after inducing a reaction at the JAK 1, 2 and 3 active sites using radioactively labeled ATP.

For another data set, the target named is JAK 1 (Homo sapiens, UniProt P23458). Briefly: JAK Human TK kinase enzymatic radiometric assay (Eurofins), JAK 1. As to conditions: value close to 100 indicates low JAK activity of the compound.
JAK 1, sequence (P23458 whole entry): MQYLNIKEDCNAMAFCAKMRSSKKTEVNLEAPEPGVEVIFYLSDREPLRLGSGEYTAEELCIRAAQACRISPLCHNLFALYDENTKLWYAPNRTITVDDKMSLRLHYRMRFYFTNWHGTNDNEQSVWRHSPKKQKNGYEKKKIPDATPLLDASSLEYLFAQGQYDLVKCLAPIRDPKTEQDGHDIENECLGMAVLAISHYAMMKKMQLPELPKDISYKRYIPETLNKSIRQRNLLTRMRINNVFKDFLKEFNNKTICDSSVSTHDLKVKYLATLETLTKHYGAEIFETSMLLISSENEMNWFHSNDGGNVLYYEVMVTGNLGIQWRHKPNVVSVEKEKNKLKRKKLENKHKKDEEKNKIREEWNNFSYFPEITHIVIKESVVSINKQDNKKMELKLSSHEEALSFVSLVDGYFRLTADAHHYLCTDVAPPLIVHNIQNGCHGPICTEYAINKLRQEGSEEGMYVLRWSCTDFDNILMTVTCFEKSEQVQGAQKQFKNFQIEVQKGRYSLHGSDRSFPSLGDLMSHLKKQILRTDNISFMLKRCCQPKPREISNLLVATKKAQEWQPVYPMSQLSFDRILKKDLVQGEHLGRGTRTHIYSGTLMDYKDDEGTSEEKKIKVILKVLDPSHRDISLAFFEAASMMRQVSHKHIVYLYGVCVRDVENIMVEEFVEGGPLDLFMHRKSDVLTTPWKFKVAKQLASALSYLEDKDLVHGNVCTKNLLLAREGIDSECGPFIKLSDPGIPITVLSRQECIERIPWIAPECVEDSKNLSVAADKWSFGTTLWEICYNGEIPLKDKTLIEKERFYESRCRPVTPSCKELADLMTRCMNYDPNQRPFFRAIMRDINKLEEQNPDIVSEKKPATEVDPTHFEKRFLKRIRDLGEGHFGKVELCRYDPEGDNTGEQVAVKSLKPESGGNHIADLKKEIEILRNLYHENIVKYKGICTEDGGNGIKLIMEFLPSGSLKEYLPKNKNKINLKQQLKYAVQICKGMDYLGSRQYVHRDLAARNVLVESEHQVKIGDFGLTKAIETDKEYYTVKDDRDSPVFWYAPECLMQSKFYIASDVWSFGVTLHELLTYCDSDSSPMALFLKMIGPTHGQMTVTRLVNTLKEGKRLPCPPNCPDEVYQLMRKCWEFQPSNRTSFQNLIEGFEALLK
A further data set deals with IL-6 (Interleukin-6). Briefly: Inhibition of inflammatory cytokine secretion in LPS-treated immune cells (IL-6 sandwich ELISA). It counts as cell-based. Particulars: Mus musculus, RAW264.7, Raw 264.7, LPS 500 ng/mL, 24 hours, read-out: IL-6 Reduction Activity (%) (Mean±SD). The protocol:
Raw 264.7 cell line was seeded in a 48-well plate at a density of 8×10^4 cells/well, and cultured at 37°C in a DMEM medium including 10% FBS, 100 U/mL of penicillin and 100 µg/mL of streptomycin.
The medium was cultured overnight, and then replaced with a fresh medium including 10 µM of the pharmaceutical composition sensitive to nitrogen monoxide including the compound of each of Examples 1 and 11 to 13 and 500 ng/mL of LPS, and the fresh medium was cultured again for another 24 hours.
Lastly, the supernatant was collected, and then the level of IL-6 (Interleukin-6) expression was analyzed using a Sandwich enzyme-linked immunosorbent assay (ELISA). Specifically, a standard solution and 50 µL of the diluted supernatant were introduced to each well of a well plate coated with an antibody specific to IL-6, and after binding IL-6 to the immobilized antibody, the well was washed with a washing buffer, followed by a reaction with HRP as a secondary antibody for 30 minutes at room temperature. The well was washed three times with a washing buffer, then color was developed using TMB (3,3', 5,5'-tetramethyl benzidine) as a substrate, and the reaction was stopped using 1 M sulfuric acid to measure the degree of color development at an absorbance of 450 nm.

In the next data set the target is T2, JAK 2 (Homo sapiens, UniProt O60674).
T2 construct: purchased Eurofins Scientific (assay service)
T2 sequence (O60674 whole entry): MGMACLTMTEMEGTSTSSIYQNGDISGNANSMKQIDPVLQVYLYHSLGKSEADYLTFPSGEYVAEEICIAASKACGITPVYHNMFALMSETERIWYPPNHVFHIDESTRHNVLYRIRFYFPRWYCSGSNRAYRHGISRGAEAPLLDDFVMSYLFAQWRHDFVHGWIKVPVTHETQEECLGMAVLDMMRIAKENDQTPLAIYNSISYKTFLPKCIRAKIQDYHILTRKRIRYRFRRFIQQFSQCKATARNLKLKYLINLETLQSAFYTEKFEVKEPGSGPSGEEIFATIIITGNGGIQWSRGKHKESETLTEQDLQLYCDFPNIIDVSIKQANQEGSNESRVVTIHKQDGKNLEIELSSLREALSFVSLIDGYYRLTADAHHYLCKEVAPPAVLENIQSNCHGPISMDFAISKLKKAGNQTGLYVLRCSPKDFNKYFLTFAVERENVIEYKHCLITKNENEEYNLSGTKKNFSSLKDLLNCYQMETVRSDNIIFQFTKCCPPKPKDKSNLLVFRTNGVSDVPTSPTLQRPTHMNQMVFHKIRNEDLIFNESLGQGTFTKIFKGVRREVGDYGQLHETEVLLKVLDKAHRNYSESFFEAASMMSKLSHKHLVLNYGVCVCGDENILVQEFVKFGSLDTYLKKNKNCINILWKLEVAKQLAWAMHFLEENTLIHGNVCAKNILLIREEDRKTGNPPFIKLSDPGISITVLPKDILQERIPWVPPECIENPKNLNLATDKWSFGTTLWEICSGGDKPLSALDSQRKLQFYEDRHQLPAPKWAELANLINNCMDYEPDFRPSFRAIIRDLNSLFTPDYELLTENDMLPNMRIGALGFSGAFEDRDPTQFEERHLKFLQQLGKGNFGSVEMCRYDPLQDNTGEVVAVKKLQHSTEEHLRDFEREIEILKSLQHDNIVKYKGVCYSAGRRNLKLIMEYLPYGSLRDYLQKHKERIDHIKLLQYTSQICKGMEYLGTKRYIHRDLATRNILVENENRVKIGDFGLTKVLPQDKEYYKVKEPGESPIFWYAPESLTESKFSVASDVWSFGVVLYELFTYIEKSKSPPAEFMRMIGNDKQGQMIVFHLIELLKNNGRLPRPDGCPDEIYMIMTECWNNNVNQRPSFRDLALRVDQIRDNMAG
Briefly: JAK Human TK kinase enzymatic radiometric assay (Eurofins), JAK 2. It counts as biochemical. Also on record: unit not given here. As to conditions: value close to 100 indicates low JAK activity of the compound.
Excerpt: as §1, §2

Turning to `C[C@@H]1CCN(C(=O)CC#N)C[C@@H]1N(C)c1ncnc2c1ccn2C(=O)Nc1ccc(N(C)C)cc1N` [Example 4, N-(2-amino-4-(dimethylamino)phenyl)-4-(((3R,4R)-1-(2-cyanoacetyl)-4-methylpiperidin-3-yl)(methyl)amino)-7H-pyrrolo[2,3-d]pyrimidine-7-carboxamide], the hematological toxicity responses result in data set [1] is “No hematological toxicity responses were observed”. In addition, in data set [2], the “release of the low-molecular-weight compound in the presence of excess nitrogen monoxide (HPLC)” value was “reacted with excess nitrogen monoxide to release tofacitinib”. Besides, the activity at 10 µM in the data set with Raw 264.7 cell line is 68.7 ± 0.74%; in the data set with IFN-γ, 98.9 ± 0.03%; in the data set on splenocytes [3], 91 ± 0.01%. The “efficacy in alleviating ulcerative colitis compared to tofacitinib” value in data set [4] (25 mg/kg oral once daily, FIGS. 4 and 5) is “comparable or more superior efficacy”. For the same compound, in data set [4] (DSS until day 5, drug from day 6, day 9 of the test, FIG. 5), the “efficacy on disease activity index (DAI)” value is given as “statistically significant efficacy was observed”. Moreover, in the data set on splenocytes [5], the inhibition at 10 µM came to 79.5 ± 6.67%.
For the compound `Cc1ccc(NC(=O)N(C(=O)n2ccc3c(N(C)[C@H]4CN(C(=O)CC#N)CC[C@H]4C)ncnc32)c2ccc(C)cc2N)c(N)c1` [Example 12, N-(2-amino-4-methylphenyl)-N-((2-amino-4-methylphenyl)carbamoyl)-4-(((3R,4R)-1-(2-cyanoacetyl)-4-methylpiperidin-3-yl) (methyl)amino)-7H-pyrrolo[2,3-d]pyrimidine-7-carboxamide], the “JAK 3 Activity” value at JAK 3 (0.1 nM) was found to be 114; at JAK 3 (1 nM) it was 107; at JAK 3 (10 nM) it was 111; on JAK 3 (100 nM), 88. For the same compound, the activity at 10 µM in the data set with Raw 264.7 cell line was 31.7 ± 0.15%; in the data set with IFN-γ, 97 ± 0.05%; in the data set with splenocytes [3] it was 64.6 ± 3.65%; in the data set on IL-6 (Interleukin-6), 61.7 ± 1.85%. The “JAK 1 Activity” value stood at 109 on JAK 1 (0.1 nM), 110 at JAK 1 (1 nM), 103 at JAK 1 (10 nM) and 81 at JAK 1 (100 nM). Besides, the inhibition at 10 µM with splenocytes [5] was 64 ± 6.17%. Moreover, the “JAK 2 Activity” value on JAK 2 (0.1 nM) worked out at 108; at JAK 2 (1 nM) it was 111; on JAK 2 (10 nM), 102; on JAK 2 (100 nM), 92.
With `COc1ccc(NC(=O)N(C(=O)n2ccc3c(N(C)[C@H]4CN(C(=O)CC#N)CC[C@H]4C)ncnc32)c2ccc(OC)cc2N)c(N)c1` [Example 13, N-(2-amino-4-methoxyphenyl)-N-((2-amino-4-methoxyphenyl)carbamoyl)-4-(((3R,4R)-1-(2-cyanoacetyl)-4-methylpiperidin-3-yl) (methyl)amino)-7H-pyrrolo[2,3-d]pyrimidine-7-carboxamide], the “JAK 3 Activity” value on JAK 3 (0.1 nM) worked out at 113; on JAK 3 (1 nM) it was 109; on JAK 3 (10 nM) it was 112; at JAK 3 (100 nM), 92. Also, the activity at 10 µM in the data set on Raw 264.7 cell line was 34.7 ± 0.28%; with IFN-γ it was 89.7 ± 0.57%; in the data set on splenocytes [3], 66.9 ± 5.06%; with IL-6 (Interleukin-6), 63.1 ± 1.23%. Further, the “JAK 1 Activity” value turned out to be 110 on JAK 1 (0.1 nM), 113 on JAK 1 (1 nM), 106 on JAK 1 (10 nM) and 89 at JAK 1 (100 nM). In addition, the inhibition at 10 µM in the data set on splenocytes [5] amounted to 16.1 ± 2.7%. For the same compound, the “JAK 2 Activity” value at JAK 2 (0.1 nM) is 120; on JAK 2 (1 nM), 107; on JAK 2 (10 nM) it was 102; on JAK 2 (100 nM) it was 104.
